Experimental findings from patent publication US20240246960A1 (adMare Therapeutics Society, priority 2021, published 2024) are described below.

For the experiment, the target named is T1, DNA-PK phosphorylation at Serine 2056 (Homo sapiens, UniProt P78527).
T1 construct: host or cells: FaDu
Description: Cellular Assay for Inhibition of DNA-PK Phosphorylation at Serine 2056 (FaDu cells, neocarzinostatin, sandwich ELISA). The format is cell-based. To be noted: Table 3. As for the experimental part: FaDu cells were purchased from ATCC and maintained in MEM alpha medium (Life Technologies, cat. no. 12561) supplemented with 10% fetal bovine serum, and 1% GlutaMAX at 37° C. supplemented with 5% CO2. 50,000 cells were seeded to each well of a 96-well cell culture plate in 50 μL of culture medium and incubated for 16-24 hours. Three-fold serially diluted compounds were prepared in DMSO. Culture media was used to prepare compound treatments to 0.3% DMSO (dimethyl sulphoxide) content. Compound treatments were added to the cells for 1 hour prior incubation, followed by the addition of neocarzinostatin in fresh culture medium to 1 μg/mL final concentration for an additional 2 hours incubation to induce DNA DSBs (double-strand breaks). DMSO controls were incubated with fresh culture medium alone for the additional two hours incubation. The cells were then lysed and frozen at −20° C. Cell lysates were thawed on wet ice and protein concentrations quantified by BCA Protein Assay (Thermo # 23225). Lysis buffer was used to normalize lysates by protein content and all lysates were then investigated by sandwich ELISA by means of DNA-PK-specific antibodies (Abcam ab44815: total DNA-PK; ab124918: phosphoserine-2056 DNA-PK) in sandwich ELISA format on the MSD S600MM platform (MesoScale Discovery). % inhibition was calculated for all data points: =1−(DATA_PT−AVERAGE(DMSO controls))/(AVERAGE(NCS controls)−AVERAGE(DMSO controls)). Logarithm of the molar concentration of compound was plotted against percent inhibition to calculate IC50 values, with curve fit settings for data fit to log(inhibitor) vs. normalized response—Variable slope using curve fit software (GraphPad Prism).
As a reminder, the IC50 is the concentration that inhibits the measured activity by half. Molecule `CS(=O)(=O)Nc1cnc2cc(N3CCOCC3)nc(O[C@H]3CC[C@@H](Nc4cncc(C(F)(F)F)n4)CC3)c2c1` [LFA1030, N-[7-morpholino-5-[4-[[6-(trifluoromethyl)pyrazin-2-yl]amino]cyclohexoxy]-1,6-naphthyridin-3-yl]methanesulfonamide] registered an IC50 of 100 to 1000 nM.

As for `CS(=O)(=O)Nc1cnc2cc(N3CCOCC3)nc(O[C@H]3CC[C@@H](Nc4cncc(C#N)n4)CC3)c2c1` [LFA1031, N-[5-[4-[(6-cyanopyrazin-2-yl)amino]cyclohexoxy]-7-morpholino-1,6-naphthyridin-3-yl]methanesulfonamide], the IC50 was less than 100 nM.

The molecule `CS(=O)(=O)Nc1cnc2cc(N3CCOCC3)nc(O[C@H]3CC[C@@H](Nc4nccnc4C#N)CC3)c2c1` [LFA1032, N-[5-[4-[(3-cyanopyrazin-2-yl)amino]cyclohexoxy]-7-morpholino-1,6-naphthyridin-3-yl]methanesulfonamide] yielded an IC50 of less than 100 nM.

Consider `CS(=O)(=O)Nc1cnc2cc(N3CCOCC3)nc(O[C@H]3CC[C@@H](Nc4ccnc(C#N)n4)CC3)c2c1` [LFA1033, N-[5-[4-[(2-cyanopyrimidin-4-yl)amino]cyclohexoxy]-7-morpholino-1,6-naphthyridin-3-yl]methanesulfonamide], for which the IC50 fell in the range of 100 to 1000 nM.

The molecule `CS(=O)(=O)Nc1cnc2cc(N3CCOCC3)nc(O[C@H]3CC[C@@H](Nc4ccccn4)CC3)c2c1` [LFA1034, N-[7-morpholino-5-[4-(2-pyridylamino)cyclohexoxy]-1,6-naphthyridin-3-yl]methanesulfonamide] registered a half-maximal inhibitory concentration (IC50) of less than 100 nM.

`CS(=O)(=O)Nc1cnc2cc(N3CCOCC3)nc(O[C@H]3CC[C@@H](Nc4ccnc(C(F)(F)F)n4)CC3)c2c1` [LFA1035, N-[7-morpholino-5-[4-[[2-(trifluoromethyl)pyrimidin-4-yl]amino]cyclohexoxy]-1,6-naphthyridin-3-yl]methanesulfonamide] gave an IC50 of 100 to 1000 nM.

Take `CS(=O)(=O)Nc1cnc2cc(N3CCOCC3)nc(O[C@H]3CC[C@@H](Nc4cnc(C#N)cn4)CC3)c2c1` [LFA1036, N-[5-[4-[(5-cyanopyrazin-2-yl)amino]cyclohexoxy]-7-morpholino-1,6-naphthyridin-3-yl]methanesulfonamide]: the IC50 is less than 100 nM.

As to `CS(=O)(=O)Nc1cnc2cc(N3CCOCC3)nc(O[C@H]3CC[C@@H](Nc4cnc(C(F)(F)F)cn4)CC3)c2c1` [LFA1037, N-[7-morpholino-5-[4-[[5-(trifluoromethyl)pyrazin-2-yl]amino]cyclohexoxy]-1,6-naphthyridin-3-yl]methanesulfonamide], the IC50 was less than 100 nM.

Turning to `COc1nc(NC2CCC(Oc3nc(N4CCOCC4)cc4ncc(NS(C)(=O)=O)cc34)CC2)ncc1C#N` (centres unmarked) [LFA1038, N-[5-[4-[(5-cyano-4-methoxy-pyrimidin-2-yl)amino]cyclohexoxy]-7-morpholino-1,6-naphthyridin-3-yl]methanesulfonamide], the IC50 was in the range of 100 to 1000 nM.

Consider `Cc1nc(N[C@H]2CC[C@@H](Oc3nc(N4CCOCC4)cc4ncc(NS(C)(=O)=O)cc34)CC2)ncc1F` [LFA1039, N-[5-[4-[(5-fluoro-4-methyl-pyrimidin-2-yl)amino]cyclohexoxy]-7-morpholino-1,6-naphthyridin-3-yl]methanesulfonamide;2,2,2-trifluoroacetic acid], for which the IC50 is less than 100 nM.

In the case of `COc1nc(N[C@H]2CC[C@@H](Oc3nc(N4CCOCC4)cc4ncc(NS(C)(=O)=O)cc34)CC2)ncc1C` [LFA1040, N-[5-[4-[(4-methoxy-5-methyl-pyrimidin-2-yl)amino]cyclohexoxy]-7-morpholino-1,6-naphthyridin-3-yl]methanesulfonamide], the IC50 was 100 to 1000 nM.

As to `CN(C)c1ccnc(N[C@H]2CC[C@@H](Oc3nc(N4CCOCC4)cc4ncc(NS(C)(=O)=O)cc34)CC2)n1` [LFA1041, N-[5-[4-[[4-(dimethylamino)pyrimidin-2-yl]amino]cyclohexoxy]-7-morpholino-1,6-naphthyridin-3-yl]methanesulfonamide], the half-maximal inhibitory concentration (IC50) fell in the range of 100 to 1000 nM.

Regarding `CS(=O)(=O)Nc1cnc2cc(N3CCOCC3)nc(O[C@H]3CC[C@@H](Nc4nccc(C#N)n4)CC3)c2c1` [LFA1042, N-[5-[4-[(4-cyanopyrimidin-2-yl)amino]cyclohexoxy]-7-morpholino-1,6-naphthyridin-3-yl]methanesulfonamide;2,2,2-trifluoroacetic acid], the half-inhibitory concentration (IC50) was less than 100 nM.

In turn, `Cc1cc(C#N)nc(N[C@H]2CC[C@@H](Oc3nc(N4CCOCC4)cc4ncc(NS(C)(=O)=O)cc34)CC2)n1` [LFA1043, N-[5-[4-[(4-cyano-6-methyl-pyrimidin-2-yl)amino]cyclohexoxy]-7-morpholino-1,6-naphthyridin-3-yl]methanesulfonamide;2,2,2-trifluoroacetic acid] returned an IC50 of less than 100 nM.

The molecule `CS(=O)(=O)Nc1cnc2cc(N3CCOCC3)nc(O[C@H]3CC[C@@H](Nc4nccc(C(F)(F)F)n4)CC3)c2c1` [LFA1044, N-[7-morpholino-5-[4-[[4-(trifluoromethyl)pyrimidin-2-yl]amino]cyclohexoxy]-1,6-naphthyridin-3-yl]methanesulfonamide] yielded an IC50 of 100 to 1000 nM.

The molecule `CS(=O)(=O)Nc1cnc2cc(N3CCOCC3)nc(O[C@H]3CC[C@@H](Nc4cnccn4)CC3)c2c1` [LFA1045, N-[7-morpholino-5-[4-(pyrazin-2-ylamino)cyclohexoxy]-1,6-naphthyridin-3-yl]methanesulfonamide;2,2,2-trifluoroacetic acid] displayed an IC50 of less than 100 nM.

For the molecule `Cc1ccnc(N[C@H]2CC[C@@H](Oc3nc(N4CCOCC4)cc4ncc(NS(C)(=O)=O)cc34)CC2)n1` [LFA1047], the IC50 is less than 100 nM.

Molecule `Cc1cnc(N[C@H]2CC[C@@H](Oc3nc(N4CCOCC4)cc4ncc(NS(C)(=O)=O)cc34)CC2)nc1` [LFA1048, N-[5-[4-[(5-methylpyrimidin-2-yl)amino]cyclohexoxy]-7-morpholino-1,6-naphthyridin-3-yl]methanesulfonamide] registered an IC50 of less than 100 nM.

With `CN(C)Cc1cnc(N[C@H]2CC[C@@H](Oc3nc(N4CCOCC4)cc4ncc(NS(C)(=O)=O)cc34)CC2)nc1` [LFA1049, N-[5-[4-[[5-[(dimethylamino)methyl]pyrimidin-2-yl]amino]cyclohexoxy]-7-morpholino-1,6-naphthyridin-3-yl]methanesulfonamide], the IC50 was less than 100 nM.

Consider `Cc1ccc(N[C@H]2CC[C@@H](Oc3nc(N4CCOCC4)cc4ncc(O)cc34)CC2)nc1` [LFA1051, 5-[4-[(5-methyl-2-pyridyl)amino]cyclohexoxy]-7-morpholino-1,6-naphthyridin-3-ol], for which the IC50 lay in the range of 100 to 1000 nM.

The molecule `Cc1cnc(N[C@H]2CC[C@@H](Oc3nc(N4CCOCC4)cc4ncc(O)cc34)CC2)c(C)c1` [LFA1052, 5-[4-[(3,5-dimethyl-2-pyridyl)amino]cyclohexoxy]-7-morpholino-1,6-naphthyridin-3-ol] showed an IC50 of 1000 to 10000 nM.

Regarding `Cc1ccc(N[C@H]2CC[C@@H](Oc3nc(N4CCOCC4)cc4ncc(O)cc34)CC2)cn1` [LFA1053, 5-[4-[(6-methyl-3-pyridyl)amino]cyclohexoxy]-7-morpholino-1,6-naphthyridin-3-ol], the IC50 is 100 to 1000 nM.

On to `Oc1cnc2cc(N3CCOCC3)nc(O[C@H]3CC[C@@H](Nc4ncc(F)cc4F)CC3)c2c1` [LFA1054, 5-[4-[(3,5-difluoro-2-pyridyl)amino]cyclohexoxy]-7-morpholino-1,6-naphthyridin-3-ol], for which the IC50 is 100 to 1000 nM.

Molecule `Cc1ccncc1N[C@H]1CC[C@@H](Oc2nc(N3CCOCC3)cc3ncc(O)cc23)CC1` [LFA1055, 5-[4-[(4-methyl-3-pyridyl)amino]cyclohexoxy]-7-morpholino-1,6-naphthyridin-3-ol] had a half-maximal inhibitory concentration (IC50) of 100 to 1000 nM.

Molecule `Oc1cnc2cc(N3CCOCC3)nc(O[C@H]3CC[C@@H](Nc4ccccn4)CC3)c2c1` [LFA1056, 7-morpholino-5-[4-(2-pyridylamino)cyclohexoxy]-1,6-naphthyridin-3-ol] registered a concentration for half-maximal inhibition (IC50) of less than 100 nM.

As for `Cc1cc(C)nc(N[C@H]2CC[C@@H](Oc3nc(N4CCOCC4)cc4ncc(O)cc34)CC2)n1` [LFA1057, 5-[4-[(4,6-dimethylpyrimidin-2-yl)amino]cyclohexoxy]-7-morpholino-1,6-naphthyridin-3-ol], the IC50 was less than 100 nM.

`CN(c1ncccn1)[C@H]1CC[C@@H](Oc2nc(N3CCOCC3)cc3ncc(O)cc23)CC1` [LFA1058, 5-[4-[methyl(pyrimidin-2-yl)amino]cyclohexoxy]-7-morpholino-1,6-naphthyridin-3-ol] came in with an IC50 of 100 to 1000 nM.

In turn, `Cc1cc(C#N)nc(N[C@H]2CC[C@@H](Oc3nc(N4CCOCC4)cc4ncc(O)cc34)CC2)n1` [LFA1059, 2-[[4-[(3-hydroxy-7-morpholino-1,6-naphthyridin-5-yl)oxy]cyclohexyl]amino]-6-methyl-pyrimidine-4-carbonitrile] gave an IC50 of 100 to 1000 nM.

In the case of `CN(C)Cc1cnc(N[C@H]2CC[C@@H](Oc3nc(N4CCOCC4)cc4ncc(O)cc34)CC2)nc1` [LFA1060, 5-[4-[[5-[(dimethylamino)methyl]pyrimidin-2-yl]amino]cyclohexoxy]-7-morpholino-1,6-naphthyridin-3-ol], the IC50 was less than 100 nM.
